Literature values, collected in US20260071096A1, “BONDED ABRASIVE ARTICLES AND METHODS OF MANUFACTURE” (3M INNOVATIVE PROPERTIES COMPANY, priority 2020, published 2026).

Conditions: species and route not given

Q: With `c1ccc2ccccc2c1` [Naphthalene, naphthalene] as the compound, how does the “LD50 (mean lethal dose)” value read?
A: Its value is 490 mg/kg.
